Data published in patent publication US7579515B2, “Increasing gamete production with a gene switch” (North Carolina State University, priority 2003, dated 2009).

System: transgenic mice carrying FSHβLCR/tet receptor plus tet operator/FSHβ gene
Test: Ovulation (oocyte count) in FSHβ-switch transgenic female mice fed Dox
Type: in vivo
From the text: Female mice (7 weeks old) were fed rat chow±Dox (6 gm/kg) and were put with males 6 days after feeding began. Females were checked for copulation plugs am and pm and were euthanized the morning plugs were found; uteri and ovaries were excised from each mouse and oocytes were freed from the ampulla and separated from cumulus cells with hyaluronidase (FIG. 3B). Oocytes were counted (see FIG. 3A). All Dox-fed mice ovulated within 5 days of male exposure except one (19 days) and it produced 90 oocytes. The sheep FSHβLCR was isolated along with its promoter in accordance with standard techniques and operatively associated with a new structural gene, the tet receptor, so that mice carrying this transgene expressed the tet receptor exclusively and strongly in pituitary gonadotropes. Linked to the […] was a second gene unit: the tet operator operatively associated with the structural gene for sheep FSHβ. […] The increase in FSHβ production created more FSH which increased ovulation by 2.4-fold (from an average of 12±0.5 to 29±4). Ovulation of this magnitude is matched only by time-consuming treatments with costly fertility hormones.

## C[C@H]1c2cccc(O)c2C(=O)C2=C(O)[C@]3(O)C(=O)C(C(N)=O)=C(O)[C@@H](N(C)C)[C@@H]3[C@@H](O)[C@@H]21 [doxycycline]
All Dox-fed mice except one (19 days)
  time to ovulation after male exposure: ≤ 5 days
The one Dox-fed mouse that ovulated at 19 days of male exposure, oocytes appeared normal
  oocytes produced by a single mouse: 90
Transgenic female mice, 7 weeks old, rat chow with Dox 6 gm/kg, put with males 6 days after feeding began, without Dox average 12±0.5
  oocytes ovulated, average: 29±4
Transgenic mice, ligand administered vs not administered
  increase in ovulation: 2.4 fold
